In US10428044B2, “3-amino-1,5,6,7-tetrahydro-4H-indol-4-ones” (Bayer Pharma Aktiengesellschaft, priority 2014, dated 2019):

These compounds were tested against (recombinant) catalytic domain of human Bub1 (amino acids 704-1085) (Homo sapiens (Human), UniProt O43683) (assay: Bub1 kinase assay (TR-FRET)). Details: ATP 10 μM final, peptide substrate 1 μM final, 60 min at 22° C., read-out: Biological Assay: Bub1 kinase assay median IC50.
Assay type: biochemical
Experimental: Examples were tested in selected biological assays one or more times. When tested more than once, data are reported as either average values or as median values, wherein • the average value, also referred to as the arithmetic mean value, represents the sum of the values obtained divided by the number of times tested, and • the median value represents the middle number of the group of values when ranked in ascending or descending order. If the number of values in the data set is odd, the median is the middle value. If the number of values in the data set is even, the median is the arithmetic mean of the two middle values.
To this end, 100-fold concentrated compound solutions (in DMSO) were previously prepared by serial dilution (1:3.4) of 2 mM stocks in a clear low volume 384-well source microtiter plate (Greiner Bio-One, Frickenhausen, Germany), from which 50 nl of compounds were transferred into a black low volume test microtiter plate from the same supplier. […] The resulting mixture (5 μL final volume) was incubated at 22° C. during 60 min., and the reaction was stopped by the addition of 5 μL of an aqueous EDTA-solution (50 mM EDTA, in 100 mM HEPES pH 7.5 and 0.2% (w/v) bovine serum albumin) which also contained the TR-FRET detection reagents (0.2 μM streptavidin-XL665 [Cisbio Bioassays, Codolet, France] and 1 nM anti-phosho-Serine antibody [Merck Millipore, cat. #35-002] and 0.4 nM LANCE EU-W1024 labeled anti-mouse IgG antibody [Perkin-Elmer, product no. AD0077, alternatively a Terbium-cryptate-labeled anti-mouse IgG antibody from Cisbio Bioassays can be used]). The stopped reaction mixture was further incubated 1 h at 22° C. in order to allow the formation of complexes between peptides and detection reagents. Subsequently, the amount of product was evaluated by measurement of the resonance energy transfer from the Eu-chelate-antibody complex recognizing the Phosphoserine residue to the streptavidin-XL665 bound to the biotin moiety of the peptide. […] The data were normalised using two sets of control wells for high- (=enzyme reaction without inhibitor=0%=Minimum inhibition) and low- (=all assay components without enzyme=100%=Maximum inhibition) Bub1 activity. IC50 values were calculated by fitting the normalized inhibition data to a 4-parameter logistic equation (Minimum, Maximum, IC50, Hill; Y=Max+(Min−Max)/(1+(X/IC50)Hill)).

Chain of (recombinant) catalytic domain of human Bub1 (amino acids 704-1085) (O43683 704-1085): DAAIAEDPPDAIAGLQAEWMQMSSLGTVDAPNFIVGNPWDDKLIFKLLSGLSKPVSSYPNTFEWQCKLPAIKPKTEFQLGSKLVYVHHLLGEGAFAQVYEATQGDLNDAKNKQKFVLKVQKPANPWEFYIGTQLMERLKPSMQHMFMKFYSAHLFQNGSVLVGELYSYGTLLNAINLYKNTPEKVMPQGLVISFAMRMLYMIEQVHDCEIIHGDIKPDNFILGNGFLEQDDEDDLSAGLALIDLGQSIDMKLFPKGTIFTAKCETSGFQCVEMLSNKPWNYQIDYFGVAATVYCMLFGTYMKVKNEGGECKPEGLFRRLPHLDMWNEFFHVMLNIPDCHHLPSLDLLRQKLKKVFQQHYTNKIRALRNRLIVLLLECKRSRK

**Q.** COc1ccc(Nc2c(-c3ccncc3)[nH]c3c2C(=O)CC(C)(C)C3)cc1OC [Example 58, 3-[(3,4-dimethoxyphenyl)amino]-6,6-dimethyl-2-(pyridin-4-yl)-1,5,6,7-tetrahydro-4H-indol-4-one] was tested. Which IC50 did it give?
**A.** 20000 nM

**Q.** For COc1ccc(Nc2c(-c3ccncc3)[nH]c3c2C(=O)CC(C)(C)C3)cc1 [Example 59, 3-[(4-methoxyphenyl)amino]-6,6-dimethyl-2-(pyridin-4-yl)-1,5,6,7-tetrahydro-4H-indol-4-one], which IC50 is on record?
**A.** 422 nM

**Q.** How did the IC50 turn out when CC1(C)CC(=O)c2c([nH]c(-c3ccncc3)c2Nc2ccccc2F)C1 [Example 60, 3-[(2-fluorophenyl)amino]-6,6-dimethyl-2-(pyridin-4-yl)-1,5,6,7-tetrahydro-4H-indol-4-one] was run?
**A.** 95.2 nM

**Q.** How did the IC50 turn out when CC1(C)CC(=O)c2c([nH]c(-c3ccncc3)c2Nc2ccccc2Cl)C1 [Example 61, 3-[(2-chlorophenyl)amino]-6,6-dimethyl-2-(pyridin-4-yl)-1,5,6,7-tetrahydro-4H-indol-4-one] was run?
**A.** 68.5 nM

**Q.** For COc1ccc(Nc2c(-c3ccncc3)[nH]c3c2C(=O)CC(C)(C)C3)c(OC)c1 [Example 62, 3-[(2,4-dimethoxyphenyl)amino]-6,6-dimethyl-2-(pyridin-4-yl)-1,5,6,7-tetrahydro-4H-indol-4-one], which IC50 is on record?
**A.** 167 nM

**Q.** Which IC50 does the source give for CC1(C)CC(=O)c2c([nH]c(-c3ccncc3)c2Nc2cccnc2)C1 [Example 63, 6,6-dimethyl-2-(pyridin-4-yl)-3-(pyridin-3-ylamino)-1,5,6,7-tetrahydro-4H-indol-4-one] here?
**A.** 196 nM

**Q.** CC1(C)CC(=O)c2c([nH]c(-c3ccncc3)c2Nc2cncc3ccccc23)C1 [Example 64, 3-(isoquinolin-4-ylamino)-6,6-dimethyl-2-(pyridin-4-yl)-1,5,6,7-tetrahydro-4H-indol-4-one] was tested. Which IC50 did it give?
**A.** 1820 nM

**Q.** For CC1(C)CC(=O)c2c([nH]c(-c3ccncc3)c2Nc2cccc(N)c2)C1 [Example 65, 3-[(3-aminophenyl)amino]-6,6-dimethyl-2-(pyridin-4-yl)-1,5,6,7-tetrahydro-4H-indol-4-one], which IC50 is on record?
**A.** 525 nM

**Q.** How did the IC50 turn out when CC1(C)CC(=O)c2c([nH]c(-c3ccncc3)c2Nc2cnc3ccccc3c2)C1 [Example 66, 6,6-dimethyl-2-(pyridin-4-yl)-3-(quinolin-3-ylamino)-1,5,6,7-tetrahydro-4H-indol-4-one] was run?
**A.** 2260 nM

**Q.** For CC1(C)CC(=O)c2c([nH]c(-c3ccncc3)c2Nc2ccc3occc3c2)C1 [Example 67, 3-(1-benzofuran-5-ylamino)-6,6-dimethyl-2-(pyridin-4-yl)-1,5,6,7-tetrahydro-4H-indol-4-one], which IC50 is on record?
**A.** 87.1 nM

**Q.** With CC1(C)CC(=O)c2c([nH]c(-c3ccncc3)c2Nc2ccc3cc[nH]c3c2)C1 [Example 68, 3-(1H-indol-6-ylamino)-6,6-dimethyl-2-(pyridin-4-yl)-1,5,6,7-tetrahydro-4H-indol-4-one] as the compound, how does the IC50 read?
**A.** 84.2 nM

**Q.** For CC1(C)CC(=O)c2c([nH]c(-c3ccncc3)c2Nc2ccc3sccc3c2)C1 [Example 69, 3-(1-benzothiophen-5-ylamino)-6,6-dimethyl-2-(pyridin-4-yl)-1,5,6,7-tetrahydro-4H-indol-4-one], which IC50 is on record?
**A.** 76.4 nM

**Q.** CC1(C)CC(=O)c2c([nH]c(-c3ccncc3)c2Nc2ccc3[nH]ccc3c2)C1 [Example 70, 3-(1H-indol-5-ylamino)-6,6-dimethyl-2-(pyridin-4-yl)-1,5,6,7-tetrahydro-4H-indol-4-one] was tested. Which IC50 did it give?
**A.** 81.7 nM

**Q.** Which IC50 does the source give for CC1(C)CC(=O)c2c([nH]c(-c3ccncc3)c2Nc2ccccc2Br)C1 [Example 71, 3-[(2-bromophenyl)amino]-6,6-dimethyl-2-(pyridin-4-yl)-1,5,6,7-tetrahydro-4H-indol-4-one] here?
**A.** 49.7 nM

**Q.** With CC1(C)CC(=O)c2c([nH]c(-c3ccncc3)c2Nc2ccc(Br)cc2)C1 [Example 72, 3-[(4-bromophenyl)amino]-6,6-dimethyl-2-(pyridin-4-yl)-1,5,6,7-tetrahydro-4H-indol-4-one] as the compound, how does the IC50 read?
**A.** 47.1 nM

**Q.** Which IC50 does the source give for CC1(C)CC(=O)c2c([nH]c(-c3ccncc3)c2Nc2ccc3nc[nH]c3c2)C1 [Example 73, 3-(1H-benzimidazol-6-ylamino)-6,6-dimethyl-2-(pyridin-4-yl)-1,5,6,7-tetrahydro-4H-indol-4-one] here?
**A.** 19900 nM

**Q.** For CC1(C)CC(=O)c2c([nH]c(-c3ccncc3)c2Nc2ccc3cn[nH]c3c2)C1 [Example 74, 3-(1H-indazol-6-ylamino)-6,6-dimethyl-2-(pyridin-4-yl)-1,5,6,7-tetrahydro-4H-indol-4-one], which IC50 is on record?
**A.** 82.3 nM

**Q.** For CC1(C)CC(=O)c2c([nH]c(-c3ccncc3)c2Nc2ccnc3ccccc23)C1 [Example 75, 6,6-dimethyl-2-(pyridin-4-yl)-3-(quinolin-4-ylamino)-1,5,6,7-tetrahydro-4H-indol-4-one], which IC50 is on record?
**A.** 14100 nM

**Q.** With COc1ccc(OC)c(Nc2c(-c3ccncc3)[nH]c3c2C(=O)CC(C)(C)C3)c1 [Example 76, 3-[(2,5-dimethoxyphenyl)amino]-6,6-dimethyl-2-(pyridin-4-yl)-1,5,6,7-tetrahydro-4H-indol-4-one] as the compound, how does the IC50 read?
**A.** 4270 nM

**Q.** How did the IC50 turn out when CC1(C)CC(=O)c2c([nH]c(-c3ccncc3)c2Nc2cc(Cl)cc(Cl)c2)C1 [Example 77, 3-[(3,5-dichlorophenyl)amino]-6,6-dimethyl-2-(pyridin-4-yl)-1,5,6,7-tetrahydro-4H-indol-4-one] was run?
**A.** 1550 nM

**Q.** Which IC50 does the source give for CC1(C)CC(=O)c2c([nH]c(-c3ccncc3)c2Nc2cc(Cl)ccc2Cl)C1 [Example 78, 3-[(2,5-dichlorophenyl)amino]-6,6-dimethyl-2-(pyridin-4-yl)-1,5,6,7-tetrahydro-4H-indol-4-one] here?
**A.** 6950 nM

**Q.** Which IC50 does the source give for CC1(C)CC(=O)c2c([nH]c(-c3ccncc3)c2Nc2cccc(C#N)c2)C1 [Example 79, 3-{[6,6-dimethyl-4-oxo-2-(pyridin-4-yl)-4,5,6,7-tetrahydro-1H-indol-3-yl]amino}benzonitrile] here?
**A.** 133 nM

**Q.** For CC1(C)CC(=O)c2c([nH]c(-c3ccncc3)c2Nc2cccc(OCc3ccccc3)c2)C1 [Example 80, 3-{[3-(benzyloxy)phenyl]amino}-6,6-dimethyl-2-(pyridin-4-yl)-1,5,6,7-tetrahydro-4H-indol-4-one], which IC50 is on record?
**A.** 188 nM

**Q.** With Cc1cc(Nc2c(-c3ccncc3)[nH]c3c2C(=O)CC(C)(C)C3)ccc1F [Example 81, 3-[(4-fluoro-3-methylphenyl)amino]-6,6-dimethyl-2-(pyridin-4-yl)-1,5,6,7-tetrahydro-4H-indol-4-one] as the compound, how does the IC50 read?
**A.** 44.3 nM

**Q.** How did the IC50 turn out when Cc1ccc(F)c(Nc2c(-c3ccncc3)[nH]c3c2C(=O)CC(C)(C)C3)c1 [Example 82, 3-[(2-fluoro-5-methylphenyl)amino]-6,6-dimethyl-2-(pyridin-4-yl)-1,5,6,7-tetrahydro-4H-indol-4-one] was run?
**A.** 510 nM

**Q.** With CCc1ccc(Nc2c(-c3ccncc3)[nH]c3c2C(=O)CC(C)(C)C3)cc1 [Example 83, 3-[(4-ethylphenyl)amino]-6,6-dimethyl-2-(pyridin-4-yl)-1,5,6,7-tetrahydro-4H-indol-4-one] as the compound, how does the IC50 read?
**A.** 293 nM

**Q.** Which IC50 does the source give for CCc1ccccc1Nc1c(-c2ccncc2)[nH]c2c1C(=O)CC(C)(C)C2 [Example 84, 3-[(2-ethylphenyl)amino]-6,6-dimethyl-2-(pyridin-4-yl)-1,5,6,7-tetrahydro-4H-indol-4-one] here?
**A.** 127 nM

**Q.** With CC(C)c1cccc(Nc2c(-c3ccncc3)[nH]c3c2C(=O)CC(C)(C)C3)c1 [Example 85, 6,6-dimethyl-3-{[3-(propan-2-yl)phenyl]amino}-2-(pyridin-4-yl)-1,5,6,7-tetrahydro-4H-indol-4-one] as the compound, how does the IC50 read?
**A.** 73.5 nM

**Q.** Which IC50 does the source give for CC(C)c1ccc(Nc2c(-c3ccncc3)[nH]c3c2C(=O)CC(C)(C)C3)cc1 [Example 86, 6,6-dimethyl-3-{[4-(propan-2-yl)phenyl]amino}-2-(pyridin-4-yl)-1,5,6,7-tetrahydro-4H-indol-4-one] here?
**A.** 5460 nM

**Q.** For CC1(C)CC(=O)c2c([nH]c(-c3ccncc3)c2Nc2cc(Cl)ccc2F)C1 [Example 87, 3-[(5-chloro-2-fluorophenyl)amino]-6,6-dimethyl-2-(pyridin-4-yl)-1,5,6,7-tetrahydro-4H-indol-4-one], which IC50 is on record?
**A.** 1780 nM

**Q.** How did the IC50 turn out when CC(C)c1ccccc1Nc1c(-c2ccncc2)[nH]c2c1C(=O)CC(C)(C)C2 [Example 88, 6,6-dimethyl-3-{[2-(propan-2-yl)phenyl]amino}-2-(pyridin-4-yl)-1,5,6,7-tetrahydro-4H-indol-4-one] was run?
**A.** 2610 nM

**Q.** For CC1(C)CC(=O)c2c([nH]c(-c3ccncc3)c2Nc2cccc(O)c2)C1 [Example 89, 3-[(3-hydroxyphenyl)amino]-6,6-dimethyl-2-(pyridin-4-yl)-1,5,6,7-tetrahydro-4H-indol-4-one], which IC50 is on record?
**A.** 288 nM

**Q.** CC1(C)CC(=O)c2c([nH]c(-c3ccncc3)c2Nc2ccc([N+](=O)[O-])cc2)C1 [Example 90, 6,6-dimethyl-3-[(4-nitrophenyl)amino]-2-(pyridin-4-yl)-1,5,6,7-tetrahydro-4H-indol-4-one] was tested. Which IC50 did it give?
**A.** 509 nM
